Data from US20260049101A1, “TOPICAL TREATMENT OF SKIN CANCER USING OLIGOPEPTIDES” (BACOBA AG, priority 2022, published 2026).
Entries after “also recorded” stand apart in the source; their conditions may differ. Read-outs that look alike come from different tables or passages of the source. Numbered stars: 1 amine (or outer) side, 2 acyl side, 3 side chain; on linkers, the order of the positions; unused ones are H or OH. Square brackets hold non-standard residues; d marks the D form. Peptide text beside a SMILES is read from it. * marks the point of attachment. X1 = CCC(=O)C[C@H](O)C[C@@H](C)C[C@H](N[*:1])C(=O)[*:2]; Hexenoyl(2E,4S-Me) = CC[C@H](C)/C=C/C(=O)*; Leu(3R-OH) = CC(C)[C@@H](O)[C@H](N)C(=O)O; NH((S)CH(Me)CH2NMe2) = C[C@@H](CN(C)C)N*; Pro(4S-Me) = C[C@@H]1CN[C@H](C(=O)O)C1; Aib = CC(C)(N)C(=O)O; βAla = NCCC(=O)O

Columns and labels:
[1] = tested on: patient derived Basal Cell Carcinoma (BCC); assay type: cell-based, human; settings: 20 μM, 4 days, vs DMSO
[2] = tested on: patient derived Basal Cell Carcinoma (BCC); assay type: cell-based, human; settings: 20 μM, 4 days, vs DMSO; p<0.002
Source text: Tumour material was harvested from an infiltrative basal cell carcinoma (BCC) from a patient's nose.

[3] = Dermal tolerability in the in vivo efficacy test; set-up: species or system mouse
Protocol: (§1) In vivo efficacy test methodology. C57Bl/6 mice (Janvier Labs); females; 6-8 weeks old at beginning of the treatment. The tumour was induced through intradermal inoculation of 1×10^5 cells per mouse intradermally in the skin of the neck. A total of 24 mice were used (n=8 for vehicle, n=8 for 5% 6027, n=8 for leucinostatin A 0.2%). Test item was applied starting on day 1 after inoculation of the tumour cells. The test items of 20 μl of 5% 6027 and of 0.2% Leucinostatin A were applied dermally with a pipette once a day every day for up to 21 days to the intact skin area of about 1 cm^2 on the site were the B16-F10 cells had been injected. If ulceration occurred then the animal was removed from the test and sacrificed.

[4] = tested on: B16F10 xenografts in C57BL/6 mice; assay: In vivo efficacy test, dermal treatment of intradermal B16-F10 tumours (tumour volume); set-up: species or system mouse; settings: 20 μl of 0.2% leucinostatin A dermally, treatment not continued longer than 7 days, observed to day 16
Protocol: as §1
The read out was tumour volume measured three times a week expressed as tumour volume (in cm^3). Additionally, tumour samples were taken for histological analysis (Tumour FFPE) (2 mice per group).

| SMILES | apoptotic cells (TUNEL positive cells) [1] | cell proliferation (Ki67) [1] | cell proliferation (Ki67) [2] | skin irritation ([3]; 0.2% leucinostatin A (lowest test concentration)) | tolerability of dermal treatment ([3]; 0.2% leucinostatin A once a day) | reduction of tumour volume [4] |
| --- | --- | --- | --- | --- | --- | --- |
| CS(=O)(=O)c1ccc(C(=O)Nc2ccc(Cl)c(-c3ccccn3)c2)c(Cl)c1 [Vismodegib, reference compound] | Significant increase | significantly reduced | significantly reduced | – | – | – |
| CCC(=O)C[C@H](O)C[C@@H](C)C[C@H](NC(=O)[C@@H]1C[C@H](C)CN1C(=O)/C=C/[C@@H](C)CC)C(=O)N[C@H](C(=O)NC(C)(C)C(=O)N[C@@H](CC(C)C)C(=O)N[C@@H](CC(C)C)C(=O)NC(C)(C)C(=O)NC(C)(C)C(=O)NCCC(=O)N[C@@H](C)CN(C)C)[C@H](O)C(C)C [leucinostatin A, reference compound] ({Hexenoyl(2E,4S-Me)}-[Pro(4S-Me)][X1][Leu(3R-OH)][Aib]LL[Aib][Aib][βAla]-{NH((S)CH(Me)CH2NMe2)}; N-terminus and C-terminus assumed) | – | – | – | strong skin irritation with destruction of the epidermis; also recorded: strong skin irritating effect | not tolerated | no significant reduction of tumour volume |
